Data taken from ChEMBL document CHEMBL1201862, “PubChem BioAssay data set” (2004).
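Results reflect a 48-hour exposure of cells in 96-well plates to compound at five concentrations. GI50: concentration for 50% inhibition of growth.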 Activity calls are given as the source filed them. Rule as the data show it: active = GI50 up to about 1.1 µM and inactive = higher.

What was measured:
Assay in all cases: inhibition of tumour cell growth, NCI panel, 48 h
[1] = tested on: SF-268
[2] = tested on: Hs-578T
[3] = tested on: OVCAR-4
[4] = tested on: NCI-H23
[5] = tested on: HT-29
[6] = tested on: Malme-3M
[7] = tested on: LOX IMVI
[8] = tested on: MDA-MB-231
[9] = tested on: U-251
[10] = tested on: MCF7
[11] = tested on: MDA-MB-435
[12] = tested on: IGROV-1
[13] = tested on: BT-549
[14] = tested on: SR
[15] = tested on: CCRF-CEM
[16] = tested on: UO-31
[17] = tested on: MOLT-4
[18] = tested on: ACHN
[19] = tested on: 786-0
[20] = tested on: A549
[21] = tested on: M14
[22] = tested on: HCT-15
[23] = tested on: TK-10
[24] = tested on: NCI-H226
[25] = tested on: UACC-62
[26] = tested on: HCC 2998
[27] = tested on: PC-3
[28] = tested on: SK-OV-3
[29] = tested on: NCI-H460
[30] = tested on: OVCAR-8
[31] = tested on: A498
[32] = tested on: OVCAR-3
[33] = tested on: SNB-75
[34] = tested on: SW-620
[35] = tested on: RPMI-8226
[36] = tested on: K562
[37] = tested on: HOP-92
[38] = tested on: OVCAR-5
[39] = tested on: NCI/ADR-RES
[40] = tested on: SF-539
[41] = tested on: COLO 205
[42] = tested on: SN12C
[43] = tested on: SF-295
[44] = tested on: SK-MEL-5
[45] = tested on: EKVX
[46] = tested on: KM12
[47] = tested on: SK-MEL-28
[48] = tested on: RXF 393
[49] = tested on: MDA-N
[50] = tested on: HOP-62
[51] = tested on: SNB-19
[52] = tested on: DU-145
[53] = tested on: HCT-116
[54] = tested on: UACC-257
[55] = tested on: CAKI-1
[56] = tested on: NCI-H522
[57] = tested on: SK-MEL-2
[58] = tested on: HL-60

N#Cc1c(O)c(C=O)c(=O)n2c1[nH]c1ccccc12
GI50 [1]: > 100 µM (inactive) | GI50 [2]: > 100 µM (inactive) | GI50 [3]: > 100 µM (inactive) | GI50 [4]: > 100 µM (inactive) | GI50 [5]: > 100 µM (inactive) | GI50 [6]: > 100 µM (inactive) | GI50 [7]: > 100 µM (inactive) | GI50 [8]: > 100 µM (inactive) | GI50 [9]: > 100 µM (inactive) | GI50 [10]: 44.3 µM (inactive) | GI50 [11]: > 100 µM (inactive) | GI50 [12]: > 100 µM (inactive) | GI50 [13]: > 100 µM (inactive) | GI50 [14]: 61.4 µM (inactive) | GI50 [15]: > 100 µM (inactive) | GI50 [16]: > 100 µM (inactive) | GI50 [17]: > 100 µM (inactive) | GI50 [18]: > 100 µM (inactive) | GI50 [19]: > 100 µM (inactive) | GI50 [20]: > 100 µM (inactive) | GI50 [21]: > 100 µM (inactive) | GI50 [22]: > 100 µM | GI50 [23]: > 100 µM (inactive) | GI50 [24]: > 100 µM (inactive) | GI50 [25]: > 100 µM (inactive) | GI50 [26]: > 100 µM (inactive) | GI50 [27]: > 100 µM (inactive) | GI50 [28]: > 100 µM (inactive) | GI50 [29]: > 100 µM (inactive) | GI50 [30]: > 100 µM (inactive) | GI50 [31]: > 100 µM (inactive) | GI50 [32]: > 100 µM (inactive) | GI50 [33]: > 100 µM (inactive) | GI50 [34]: > 100 µM (inactive) | GI50 [35]: > 100 µM (inactive) | GI50 [36]: > 100 µM (inactive) | GI50 [37]: > 100 µM (inactive) | GI50 [38]: > 100 µM (inactive) | GI50 [39]: > 100 µM (inactive) | GI50 [40]: > 100 µM (inactive) | GI50 [41]: > 100 µM (inactive) | GI50 [42]: > 100 µM (inactive) | GI50 [43]: > 100 µM (inactive) | GI50 [44]: > 100 µM (inactive) | GI50 [45]: > 100 µM (inactive) | GI50 [46]: > 100 µM (inactive) | GI50 [47]: > 100 µM (inactive) | GI50 [48]: > 100 µM (inactive) | GI50 [49]: > 100 µM (inactive) | GI50 [50]: > 100 µM (inactive) | GI50 [51]: > 100 µM (inactive) | GI50 [52]: > 100 µM (inactive) | GI50 [53]: > 100 µM (inactive) | GI50 [54]: > 100 µM (inactive) | GI50 [55]: > 100 µM (inactive) | GI50 [56]: > 100 µM (inactive)

CC(C)CC(N)C(=O)NC(CNC(CCC(N)=O)C(=O)NC(CC(C)C)C(=O)NC(CC(C)C)C(=O)O)Cc1ccc2ccccc2c1 (stereo not drawn)
GI50 [1]: > 10 µM (inactive) | GI50 [2]: > 10 µM (inactive) | GI50 [3]: > 10 µM (inactive) | GI50 [4]: > 10 µM (inactive) | GI50 [5]: > 10 µM (inactive) | GI50 [6]: > 10 µM (inactive) | GI50 [7]: > 10 µM (inactive) | GI50 [8]: > 10 µM (inactive) | GI50 [9]: > 10 µM (inactive) | GI50 [10]: > 10 µM (inactive) | GI50 [11]: > 10 µM (inactive) | GI50 [12]: > 10 µM (inactive) | GI50 [13]: > 10 µM (inactive) | GI50 [14]: > 10 µM (inactive) | GI50 [15]: > 10 µM (inactive) | GI50 [57]: > 10 µM (inactive) | GI50 [16]: > 10 µM (inactive) | GI50 [17]: > 10 µM (inactive) | GI50 [18]: > 10 µM (inactive) | GI50 [19]: > 10 µM (inactive) | GI50 [20]: > 10 µM (inactive) | GI50 [21]: > 10 µM (inactive) | GI50 [22]: > 10 µM | GI50 [23]: > 10 µM (inactive) | GI50 [24]: > 10 µM (inactive) | GI50 [25]: > 10 µM (inactive) | GI50 [26]: > 10 µM (inactive) | GI50 [27]: > 10 µM (inactive) | GI50 [28]: > 10 µM (inactive) | GI50 [29]: > 10 µM (inactive) | GI50 [30]: > 10 µM (inactive) | GI50 [31]: > 10 µM (inactive) | GI50 [32]: > 10 µM (inactive) | GI50 [33]: > 10 µM (inactive) | GI50 [34]: > 10 µM (inactive) | GI50 [35]: > 10 µM (inactive) | GI50 [36]: > 10 µM (inactive) | GI50 [37]: > 10 µM (inactive) | GI50 [38]: > 10 µM (inactive) | GI50 [39]: > 10 µM (inactive) | GI50 [40]: > 10 µM (inactive) | GI50 [41]: > 10 µM (inactive) | GI50 [42]: > 10 µM (inactive) | GI50 [43]: > 10 µM (inactive) | GI50 [44]: > 10 µM (inactive) | GI50 [45]: > 10 µM (inactive) | GI50 [46]: > 10 µM (inactive) | GI50 [47]: > 10 µM (inactive) | GI50 [58]: > 10 µM (inactive) | GI50 [48]: > 10 µM (inactive) | GI50 [49]: > 10 µM (inactive) | GI50 [50]: > 10 µM (inactive) | GI50 [51]: > 10 µM (inactive) | GI50 [52]: > 10 µM (inactive) | GI50 [53]: > 10 µM (inactive) | GI50 [54]: > 10 µM (inactive) | GI50 [55]: 9.31 µM (inactive)
